What all share (assay): NCI anticancer screen, dose series, 48 h
The test system of experiment [1] is UACC-257.
Experiment [2] deals with 786-0.
The test system of experiment [3] is MOLT-4.
For experiment [4], the system named is DU-145.
The subject of experiment [5] is SR.
The test system of experiment [6] is OVCAR-4.
Experiment [7] deals with SN12C.
The subject of experiment [8] is HCT-15.
Experiment [9] concerns A498.
In experiment [10] the test system is NCI-H460.
The subject of experiment [11] is HCC 2998.
The subject of experiment [12] is NCI-H226.
Experiment [13] relates to MDA-MB-231.
In experiment [14] the test system is M14.
The test system of experiment [15] is HL-60.
The test system of experiment [16] is RXF 393.
Experiment [17] deals with SK-MEL-2.
The test system of experiment [18] is UO-31.
The subject of experiment [19] is SF-539.
In experiment [20] the test system is CAKI-1.

The source of these data is ChEMBL document CHEMBL1201862, “PubChem BioAssay data set” (2004).

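Tested at 5 concentrations; 48 h exposure; 96-well plates; endpoints linearly interpolated, else capped at highest concentration. Abbreviation: GI50, concentration required for 50% inhibition of growth.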 The source made the active and inactive calls. No stated cut-off is given here; in the data, active = GI50 up to about 1.1 µM and inactive = higher.

As to `CC(C)(C)OC(=O)NC1CCCC1C(=O)C1=CCCC1` (stereo not drawn), the GI50 in [1] is > 100 µM (inactive); in experiment [2] it was > 100 µM (inactive); in experiment [3], > 100 µM (inactive); in experiment [4] it was > 100 µM (inactive); in experiment [5], 90.8 µM (inactive); in [6], 49.1 µM (inactive). Moreover, the GI50 in [7] was 53.3 µM (inactive); in [8] it was 59 µM; in experiment [9], > 100 µM (inactive); in experiment [10], > 100 µM (inactive); in experiment [11], 88.7 µM (inactive); in [12] it was > 100 µM (inactive). The GI50 in experiment [13] is 82.8 µM (inactive); in [14] it was > 100 µM (inactive); in experiment [15], > 100 µM (inactive); in experiment [16], > 100 µM (inactive); in experiment [17], > 100 µM (inactive).

Take `c1ccc2c3nnc(c2c1)SCCCSc1nnc(c2ccccc12)SCCCS3`: the GI50 in experiment [1] is > 100 µM (inactive); in experiment [18], > 100 µM (inactive); in [2] it was 54.1 µM (inactive); in experiment [3], > 100 µM (inactive); in experiment [4], 33.7 µM (inactive); in experiment [5], 84.1 µM (inactive). Also, the GI50 was 23.4 µM (inactive) in experiment [6]; > 100 µM (inactive) in experiment [7]; greater than 100 µM in experiment [8]; 61.1 µM (inactive) in [9]; 34.4 µM (inactive) in experiment [10]; > 100 µM (inactive) in experiment [11]. For the same compound, the GI50 in [12] was 24.3 µM (inactive); in experiment [13] it was 17.2 µM (inactive); in experiment [14], 90.8 µM (inactive); in [15] it was > 100 µM (inactive); in experiment [19], 11 µM (inactive); in experiment [16], 33.3 µM (inactive). Further, the GI50 in experiment [17] was 40.1 µM (inactive).

For the compound `COc1ccc(-n2nnc3c(C#N)c(C)c(-c4ccccc4)n3c2=O)cc1`, the GI50 was > 47.4 µM (inactive) in [1]; 4.33 µM (inactive) in [18]; 1.94 µM (inactive) in experiment [2]; 0.455 µM (active) in [3]; 1.62 µM (inactive) in experiment [4]; 1.96 µM (inactive) in experiment [5]. Besides, the GI50 in [6] was > 75.2 µM (inactive); in experiment [7], 4.34 µM (inactive); in [8], 4.72 µM; in experiment [9], 3.45 µM (inactive); in experiment [10] it was 3.65 µM (inactive); in [11] it was 3.56 µM (inactive). The GI50 in [12] was 2.3 µM (inactive); in experiment [13], 10.3 µM (inactive); in experiment [14], 1.4 µM (inactive); in experiment [19] it was 2.04 µM (inactive); in [16] it was 2.2 µM (inactive); in [17], 3.56 µM (inactive).

Regarding `COC1C(O)C(O[C@H]2CC[C@@]3(C)C(CC[C@@H]4[C@@H]3CC[C@]3(C)[C@@H](C(C)OC5OC(CO)C(O)C(O)C5O)CC[C@]43O)C2)OC(C)C1OC1OC(CO)C(O)C(O)C1O` (stereo partly drawn), the GI50 in experiment [1], in experiment [18], in experiment [2], in experiment [3], in experiment [4] and in [20] was > 100 µM (inactive) in each case. For the same compound, the GI50 in experiment [5] was > 100 µM (inactive); in experiment [6], > 100 µM (inactive); in experiment [7], > 100 µM (inactive); in [8], greater than 100 µM; in experiment [9], > 100 µM (inactive); in experiment [10], > 100 µM (inactive). Besides, the GI50 in experiment [11], in [12], in experiment [13], in [14], in experiment [19] and in experiment [16] was > 100 µM (inactive) throughout. Moreover, the GI50 in experiment [17] was > 100 µM (inactive).
